# From patent EP4353084A1, “BIOPESTICIDE COMPOSITION WITH SYNERGISTIC EFFECT AND METHOD FOR COMBATING AND CONTROLLING PESTS” (Kimitec Biogroup S.L, priority 2022, dated 2024)
# “And” between values parts separate entries of the source, which are not always exact repeats. Equal values may be shown once. Marks after values point to notes of the source that are not given here.
# Legend:
# Assay type in all cases: in vivo
# [1] = test system: Tetranychus urticae; experiment: Contact mortality (Leaf Disc Method); conditions: for Mortality (%M): adults, 24 h, Abbott corrected
# Description: This bioassay is to evaluate the physical effect of different doses on the mortality of Tetranychus urticae (red spider mite) adults in a short/medium-term (0-24 hours) by topical application.
# Tests were conducted in plastic net petri dishes (5 cm diameter) (Figure 2). (a) The bottom of the petri dish was covered with a thin (0.4 mm) layer of agar 12% (w/v). After 2 minutes, to cool agar, (b) bean (Phaseolus vulgaris) leaf discs (2 cm^2) were placed on the fresh agar surface (upper side up) and allowed to dry for 30 minutes. This provides a support and disc hydration along the experiment (24 h). Fifteen (c) Tetranychus urticae adults were placed on the upper surface of a bean leaf disc with a fine entomological brush. The mites were allowed to acclimate for 30 minutes. A total of 10 petri dishes for each treatment (individual active ingredients, blend of active ingredients, positive and negative controls) were used in each experiment and temporarily replicated 3 times along the week.
# Each treatment (different doses of individual active ingredients, blend of active ingredients, and controls) was sprayed (50 µl) two times on the settled spider mites, covering all the disc surface in each petri dishes using a micro-atomizer. Closed and labeled bottles were incubated in a compact-type growth chamber at 25 (±2) °C, 60% relative humidity (RH), and a photoperiod of 16 h:8 h light: dark. Numbers of live and dead mite adults were counted at 24 h post-treatment. Mite adults were considered dead if no movement was apparent after probing with the tip of a fine brush under stereoscopic magnifying glass. Mortality percentage was calculated in treatment and control groups. If the mortality in negative control is above 20%, the test was discarded. When control mortality was greater than 5% but less than 20%, the observed mortality (%M) was corrected using Abbott's formula (Abbott, 1925): % Corrected M = (X−Y)/(100−Y)x [formula]
# Where: X= Mortality (%) in the treatment; Y= Mortality (%) in the control
# Means of %M were compared using a one-way analysis of variance (ANOVA, p<0.05) and LSD-test as a post hoc test to verify significant differences between single treatments using Statgraphics Centurion XVII software. When nonnormality in the data was detected, an additional Kruskal-Wallis test was conducted, and Box-and-Whisker Plot (Median Notch) was presented. Each active ingredient and the blend were tested in a dose-response experiment (3-5 serial dilutions) to calculate their relative potency (EC50 and/or EC90) from a linear regression analysis (%M on Log-dose). In addition, death mite adults were carefully observed under stereoscopic magnifying glass to differentiate the mechanisms of action involved in contact mortality such as: Blocking tracheal insect spiracles (suffocation) and effect on insect cuticle and/or membranes (osmotic shock). Table 4. Contact mortality of test items against Tetranychus urticae
# [2] = test system: Tetranychus urticae; experiment: In planta settling inhibition (Whole Plant Direct Method); conditions: 24 hours
# Description: The objective of this bioassay is to evaluate the effect of different doses of individual active ingredients and biopesticide composition on the settling behavior of Tetranychus urticae. It's based on the preference of mite adults for treated and non-treated bean (Phaseolus vulgaris) plants located in the same petri dishes (in vitro assays) or entomological cages (in planta assays): The experiments were conducted in bugdorm®-type net cages (60x60x60 cm, 140 microns mesh) (Figure 4). By putting inside this, 14 cm diameter pots with two similar bean plants in two-leaf stage in each pot (Figure 5). One of the plants was sprayed with the composition of the present invention and the other with the control and allowed to dry for 30 minutes. Adult mites (up to 100) were released at the base of stems between the two plants (treated and untreated), so that they had to choose between two alternatives or remain walking and/or resting on the cage walk. A total of 5 cages for each treatment (four plant each) (Figure 6) and control were used in each experiment and replicated 3 times in different days. Closed and labeled cages were incubated in a "walk-in" type growth chamber at 25 (±2) °C, 60% relative humidity (RH), and a photoperiod of 16 h:8 h light: dark. After 24 hours the number of adults settled in treated and non-treated plants and the number of laid eggs were recorded on both side of blade in each leaf. Number of mites and eggs were counted under a stereomicroscope. Settling inhibition index (%SI) was calculated according to the following formula: %SI = [1−((T)/(C))] × 100 [formula] T= Settling of treated plants; C= Settling of control plants. Oviposition inhibition index (%10) was calculated according to the following formula: %IO = [1−((T)/(C))] × 100 [formula] T= laid eggs on treated plants; C= laid eggs on control plants. Means of %SI and %10 were analyzed for significance by the non-parametric Wilcoxon signed-rank test (p<0.05). An asterisk (*) means statistically significancy. Table 6. In planta antifeedant effects against Tetranychus urticae
# [3] = test system: Tetranychus urticae; experiment: In vitro settling inhibition (leaf disc painting method); conditions: 24 h
# Description: The objective of this bioassay is to evaluate the effect of different doses of individual active ingredients and biopesticide composition on the settling behavior of Tetranychus urticae. It's based on the preference of mite adults for treated and non-treated bean (Phaseolus vulgaris) plants located in the same petri dishes (in vitro assays) or entomological cages (in planta assays): Tests were conducted in plastic net petri dishes (5cm diameter) (Figure 3). The bottom of the petri dish was covered with a thin (0.4 mm) layer of agar 12% (w/v) (a). After 2 minutes to cool agar, bean (Phaseolus vulgaris) leaf discs (2 cm^2) were placed on the fresh agar surface (upper side up) and allowed to dry for 30 minutes. It provides a support and disc hydration along the experiment (24 h). Half of the discs were treated (T) with 20 µl of the individually active ingredients and the blend and the other half with water containing 2% TWEEN® 80 that was used as control (C). Fifteen Tetranychus urticae adults were placed on the middle of treated and untreated leaf discs and allowed to feed (24 h) in a compact-type growth chamber at 25 (±2) °C, 60% relative humidity, and a photoperiod of 16 h:8 h light: dark. A total of 10 petri dishes for each treatment were used in each experiment and temporarily replicated 3 times along the week. Table 5. In vitro antifeedant effects against Tetranychus urticae Settling inhibition index (%SI) was calculated according to the following formula: %SI = [1−((T)/(C))] × 100 [formula] T= Settling of treated plants; C= Settling of control plants.
# [4] = test system: Tetranychus urticae; experiment: Knock-down bioassays; conditions: 1% w/v; mortality assessed at 1, 2, 4, 6, 8, 16 and 24 hours after spraying; Figures 7 and 8
# Description: Furthermore, the composition of the present invention was tested to evaluate its knock-down effect in the contact mortality assays of individual active ingredients and blend. Mortality, as in bioassay of contact mortality, was assessed at 1, 2, 4, 6, 8, 16 and 24 hours after spraying the blend of Eucalyptus oil and geraniol. In the case of individual active ingredients (Eucalyptus oil and geraniol), we used the dose that give major activity in contact (topical) assays 1% w/v Table 4. Blend was prepared at 0.06:0.06 %w/v (Eucalyptus oil: geraniol) for the bioassays with the biopesticide composition.
# The same behavior was stated in the case of biopesticide composition (Figure 9). Abrupt curves showing high mortalities within oner hour are indicative of neurotoxic effects. However, smoothed curves could be used as indicative of non-toxic mode of action.
smiles,measurement,setting,value
Cc1ccc(C(C)C)cc1O [Carvacrol],Mortality (%M),[1]; Dose 0.01 % (w/v),38.9 ± 5.1%
same,Mortality (%M),[1]; Dose 0.05 % (w/v),47.1 ± 7.2%
same,Mortality (%M),[1]; Dose 0.10 % (w/v),66.8 ± 5.3%
same,Mortality (%M),[1]; Dose 1.0 % (w/v),100.0 ± 0.0%
same,concentration given 80% of contact mortality,[1]; EC80,0.55%
same,"EC80 (%, w/v)","[1]; Table 12, contact mortality, limits in brackets, text calls it EC80","EC50 (%, w/v) = 0.55 (0.42, 0.8)"
CC(C)=CCC/C(C)=C/CO [geraniol],Oviposition inhibition (%IO),[2]; Dose 0.10 % (w/v),44.3 ± 3.7* %
same,Settling inhibition (%SI),[2]; Dose 0.10 % (w/v),57.7 ± 5.3%
same,Oviposition inhibition (%IO),[2]; Dose 0.50 % (w/v),72.1 ± 3.1* %
same,Settling inhibition (%SI),[2]; Dose 0.50 % (w/v),73.2 ± 2.6%
same,Oviposition inhibition (%IO),[2]; Dose 1.0 % (w/v),81.1 ± 2.1* %
same,Settling inhibition (%SI),[2]; Dose 1.0 % (w/v),76.1 ± 2.7%
same,Settling inhibition (%SI),[3]; Dose 0.02 % (w/v),31.1 ± 4.4 %
same,Settling inhibition (%SI),[3]; Dose 0.05 % (w/v),47.5 ± 4.6 %
same,Settling inhibition (%SI),[3]; Dose 0.10 % (w/v),70.6%
same,Settling inhibition (%SI),"[3]; Dose 0.10 % (w/v), listed as Geraniol",70.6 ± 3.0 %
same,Settling inhibition (%SI),[3]; Dose 0.50 % (w/v),75.3 ± 3.4 %
same,Settling inhibition (%SI),[3]; Dose 1.0 % (w/v),82.9 ± 2.5 %
same,Mortality (%M),[1]; Dose 0.10 % (w/v),"18,1% and 18.1 ± 2.4% and 18.1 ± 2.4 ^a %"
same,Mortality (%M),[1]; Dose 0.50 % (w/v),28.2% and 28.2 ± 3.2% and 28.2 ± 3.2 ^b %
same,Mortality (%M),[1]; Dose 1.0 % (w/v),43.9 ± 2.5% and 43.9 ± 2.5 ^c %
same,"EC50 (%, w/v)","[1]; contact mortality, linear regression %M on Log-dose, limits in brackets","EC50 (%, w/v) = 2.44 (1.24, 4.75)"
same,concentration given 50% of contact mortality,[1]; in vivo,2.44%
same,Knock-down effect (knockdown curve),[4],slow and gradual increase in the mortality along the time
